In patent US9459250B2, “Use of T1R3 venus flytrap region polypeptide to screen for taste modulators” (SENOMYX, INC., priority 2003, dated 2016):
Entries after “also recorded” stand apart in the source; their conditions may differ. Like-named read-outs stand apart in the source and are kept apart here. Where a SMILES comes first, the peptide text is derived from it.

Columns and labels:
hT1R2/hT1R3 = hT1R2/hT1R3 (Homo sapiens (Human), UniProt Q7RTX0+Q8TE23); test: Sweet FLIPR assay, hT1R2/hT1R3-HEK293-Gα15 S-9 cells; type: cell-based; settings: Table 5 Sweet Enhancer Amides
Experimental: Compounds were initially selected based on their activity on the hT1R2/hT1R3-HEK293-Gα15 cell line (Li, et al. vide supra). Activity was determined using an automated fluorometric imaging assay on a FLIPR instrument (Fluorometric Intensity Plate Reader, Molecular Devices, Sunnyvale, Calif.) (designated FLIPR assay). […] S-9 cells were grown for 24 hours at 37° C. S-9 cells were then loaded with the calcium dye Fluo-3AM (Molecular Probes, Eugene, Oreg.), 4 μM in a phosphate buffered saline (D-PBS) (Invitrogen, Carlsbad, Calif.), for 1 hour at room temperature. After replacement with 25 μl D-PBS, stimulation was performed in the FLIPR instrument and at room temperature by the addition of 25 μl D-PBS supplemented with different stimuli at concentrations corresponding to twice the desired final level.
For dose-responses analysis, stimuli were presented in duplicates at 10 different concentrations ranging from 60 nM to 30 μM. Activities were normalized to the response obtained with 400 mM D-fructose, a concentration that elicits maximum receptor response. Ec50s were determined using a non-linear regression algorithm (using Senomyx, Inc. software), where the Hill slope, bottom asymptotes and top asymptotes were allow to vary.

T1R1/T1R3 [1] = target: T1, T1R1/T1R3 (Homo sapiens (Human), UniProt Q7RTX0+Q7RTX1); test: Calcium imaging of HEK-Gα15 cells transiently transfected with human T1R1/T1R3; type: cell-based
T1R1/T1R3 [2] = target: T1, T1R1/T1R3; test: Umami FLIPR assay, HEK-Gα15 clone I-17 inducibly expressing T1R1/T1R3; type: cell-based; settings: for EC50: Table 1 Umami Amides
Experimental: A dose-dependent response curve was determined for a compound, and the compound concentration corresponding to 50% of the maximal response was derived from the curve, in one example.
Regarding umami tastants and enhancers, scores of their activities can be given as percentage of the maximum MSG intensity (%). In compound dose response, an EC50 can be calculated to reflect the potency of the compound as umami agonist.
(§1) HEK-Gα15 cells were engineered to inducibly express T1R1/T1R3 using the GeneSwitch system (Invitrogen). pGene-derived zeocin-resistant expression vectors for human T1R1 and T1R3 (plasmid SXV603 for T1R1 and SXV611 for T1R3) and a puromycin-resistant pSwitch-derived vector that carries the GeneSwitch protein (plasmid SXV628) were linearized and cotransfected into the HEK-Gα15 cell line. Zeocin-resistant and puromycin-resistant colonies were selected, expanded, induced with variable amounts of mifepristone, and tested by calcium imaging for responses to umami taste stimuli. […] After replacement with 50 μl PBS, stimulation was performed at room temperature by the addition of 50 μl PBS supplemented with different stimuli. The maximal fluorescence from four independent determinations were averaged, corrected for background fluorescence measured prior to compound addition, and normalized to the response to 0.002 mM ionomycin (CALBIOCHEM).

T1R1/T1R3 [3] = target: T1, T1R1/T1R3; test: FLIPR dose responses of human T1R1/T1R3 stable cell line with modulators; type: cell-based; settings: for effect of control sweeteners on activities of T1R1/T1R3 umami taste receptor: [Steviocide]=0.5 mM, [Saccharin]=1 mM, glutamate and glutamate/IMP dose responses
Text: (§2) “Detection thresholds” are defined as the lower limit of detectable tastants. The detection threshold values were averaged over four trials for three subjects. […] The activities in B, C, E and F represent the mean±SE of fold increases in fluorescence intensities for four recorded wells. The dose-responses in B, C, E and F were reproduced at least 6 times independently.
Human cell lines that stably co-express human T1R2/T1R3 or human T1R1/T1R3 were generated by transfecting linearized PEAK10-derived (Edge Biosystems) vectors and pcDNA 3.1/ZEO-derived (Invitrogen) vectors respectively containing hT1R1 or hT1R2 expression construct (plasmid SAV2485 for T1R1, SAV2486 for T1R2) and hT1R3 (plasmid SXV550 for T1R3) into a Gα15 expressing cell line. […] Following SAV2485/SXV550 and SAV2486/SXV550 transfections, puromycin-resistant and zeocin-resistant colonies were selected, expanded, and tested by calcium imaging for responses to sweet or umami taste stimuli. Cells were selected in 0.0005 mg/ml puromycin (CALBIOCHEM) and 0.1 mg/ml zeocin (Invitrogen) at 37° C. in low-glucose DMEM supplemented with GlutaMAX, 10% dialyzed FBS, and 0.003 mg/ml blasticidin. Resistant colonies were expanded, and their responses to sweet taste stimuli evaluated by Fluorescence microscopy. For automated fluorimetric imaging on VIPR-II instrumentation (Aurora Biosciences), T1R2/T1R3 stable cells were first seeded onto 96-well plates (approximately 100,000 cells per well).

human sweet receptor = human sweet receptor (Homo sapiens (Human), UniProt Q7RTX0+Q8TE23); test: Dose responses of human sweet receptor with lactisole; type: cell-based; settings: read-out: EC50 of sweetener
Text: Values represent the mean±SE for four independent responses.

T1R1/T1R3 [4] = target: T1, T1R1/T1R3; test: Umami enhancement assay: MSG dose response with and without compound; type: cell-based; settings: Table 1; compound @ 1 uM
Experimental: In enhancement assay experiments, a MSG dose response was run and a second MSG dose response was run with a certain amount of candidate compound at every MSG concentrations at the same time. Then, the EC50 ratio is calculated based on the following definitions: EC50 Ratio=EC50(MSG)/EC50(MSG+[Compound])
wherein “[compound]” refers to the concentration of compound used to elicit (or enhance or potentiate) the MSG dose response. Those concentrations can vary from a pM to an mM, more preferred, from a low nM to μM.
as §1

[5] = tested on: endogenous muscarinic acetylcholine receptor; test: Endogenous muscarinic acetylcholine receptor response in HEK cells; type: cell-based; settings: carbachol
Text: as §2

mT2R5 = mT2R5 (Mus musculus (Mouse), UniProt Q9JKT4); test: Mouse bitter receptor mT2R5 transiently expressed in HEK cells; type: cell-based
Text: As was the case for the T1R2/T1R3 receptor, lactisole inhibition of the T1R1/T1R3 response to umami taste stimuli was reversible following washout and restimulation.

[6] = Human taste detection thresholds in the presence of lactisole; type: in vivo; settings: millimolar (1 and 2 mM) lactisole, human subjects
Text: as §2
The present inventors then evaluated the effect of lactisole on human umami taste.

HEK293-Gα15 cells = test: FLIPR assay on HEK293-Gα15 cells not expressing the human sweet receptor; type: cell-based
Text: In order to determine the dependency of hT1R2/hT1R3 for the cell response to different stimuli, selected compounds were subjected to a similar analysis on HEK293-Gα15 cells (not expressing the human sweet receptor).

Chain of hT1R2/hT1R3 (Q8TE23 other isoform, or with tags, fused parts or gaps): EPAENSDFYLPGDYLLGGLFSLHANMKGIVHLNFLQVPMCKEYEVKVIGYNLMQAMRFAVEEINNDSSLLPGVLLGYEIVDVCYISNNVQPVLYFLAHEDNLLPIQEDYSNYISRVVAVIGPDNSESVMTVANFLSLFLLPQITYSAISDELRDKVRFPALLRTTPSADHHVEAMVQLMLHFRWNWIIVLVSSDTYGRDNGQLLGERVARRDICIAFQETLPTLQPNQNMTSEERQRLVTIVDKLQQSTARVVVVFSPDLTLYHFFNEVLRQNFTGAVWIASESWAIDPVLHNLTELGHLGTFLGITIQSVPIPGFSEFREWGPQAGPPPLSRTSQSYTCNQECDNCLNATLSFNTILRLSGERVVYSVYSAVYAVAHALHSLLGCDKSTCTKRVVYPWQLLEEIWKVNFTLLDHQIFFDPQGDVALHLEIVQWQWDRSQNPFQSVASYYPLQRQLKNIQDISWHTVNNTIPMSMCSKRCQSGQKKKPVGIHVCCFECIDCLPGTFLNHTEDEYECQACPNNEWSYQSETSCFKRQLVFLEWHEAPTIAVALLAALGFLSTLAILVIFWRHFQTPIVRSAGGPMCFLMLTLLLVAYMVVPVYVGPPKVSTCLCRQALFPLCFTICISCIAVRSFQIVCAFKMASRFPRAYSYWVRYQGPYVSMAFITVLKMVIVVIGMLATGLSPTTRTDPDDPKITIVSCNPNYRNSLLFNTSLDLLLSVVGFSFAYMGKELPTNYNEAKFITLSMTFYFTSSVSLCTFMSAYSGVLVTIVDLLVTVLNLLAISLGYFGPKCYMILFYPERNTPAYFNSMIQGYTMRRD
Chain of hT1R2/hT1R3 (Q7RTX0 21-852 C757R): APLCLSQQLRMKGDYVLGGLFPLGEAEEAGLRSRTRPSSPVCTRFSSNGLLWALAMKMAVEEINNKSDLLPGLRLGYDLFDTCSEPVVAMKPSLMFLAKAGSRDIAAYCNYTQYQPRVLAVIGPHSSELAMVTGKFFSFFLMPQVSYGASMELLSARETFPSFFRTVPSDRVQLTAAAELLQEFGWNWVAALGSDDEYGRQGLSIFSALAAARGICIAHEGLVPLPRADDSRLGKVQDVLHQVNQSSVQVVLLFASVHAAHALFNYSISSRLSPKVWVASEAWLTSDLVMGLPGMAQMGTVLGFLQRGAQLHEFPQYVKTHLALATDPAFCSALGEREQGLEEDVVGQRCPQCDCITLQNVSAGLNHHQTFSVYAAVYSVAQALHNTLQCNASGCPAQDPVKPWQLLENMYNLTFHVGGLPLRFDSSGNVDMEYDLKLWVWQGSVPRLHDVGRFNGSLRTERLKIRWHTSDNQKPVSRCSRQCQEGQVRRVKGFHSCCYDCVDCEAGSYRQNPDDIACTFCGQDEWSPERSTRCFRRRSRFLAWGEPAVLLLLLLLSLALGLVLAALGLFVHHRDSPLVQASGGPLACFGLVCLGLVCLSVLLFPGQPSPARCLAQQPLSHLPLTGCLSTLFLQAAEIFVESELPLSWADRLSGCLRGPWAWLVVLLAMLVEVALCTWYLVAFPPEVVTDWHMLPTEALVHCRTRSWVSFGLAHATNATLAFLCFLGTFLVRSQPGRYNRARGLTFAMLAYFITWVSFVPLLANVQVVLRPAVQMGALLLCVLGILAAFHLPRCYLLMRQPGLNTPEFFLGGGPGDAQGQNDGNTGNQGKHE
Chain of human sweet receptor (Q8TE23 other isoform, or with tags, fused parts or gaps): as the sequence (Q8TE23 other isoform, or with tags, fused parts or gaps) above
Chain of human sweet receptor (Q7RTX0 21-852 C757R): as the sequence (Q7RTX0 21-852 C757R) above
T1 sequence (Q7RTX1 21-841): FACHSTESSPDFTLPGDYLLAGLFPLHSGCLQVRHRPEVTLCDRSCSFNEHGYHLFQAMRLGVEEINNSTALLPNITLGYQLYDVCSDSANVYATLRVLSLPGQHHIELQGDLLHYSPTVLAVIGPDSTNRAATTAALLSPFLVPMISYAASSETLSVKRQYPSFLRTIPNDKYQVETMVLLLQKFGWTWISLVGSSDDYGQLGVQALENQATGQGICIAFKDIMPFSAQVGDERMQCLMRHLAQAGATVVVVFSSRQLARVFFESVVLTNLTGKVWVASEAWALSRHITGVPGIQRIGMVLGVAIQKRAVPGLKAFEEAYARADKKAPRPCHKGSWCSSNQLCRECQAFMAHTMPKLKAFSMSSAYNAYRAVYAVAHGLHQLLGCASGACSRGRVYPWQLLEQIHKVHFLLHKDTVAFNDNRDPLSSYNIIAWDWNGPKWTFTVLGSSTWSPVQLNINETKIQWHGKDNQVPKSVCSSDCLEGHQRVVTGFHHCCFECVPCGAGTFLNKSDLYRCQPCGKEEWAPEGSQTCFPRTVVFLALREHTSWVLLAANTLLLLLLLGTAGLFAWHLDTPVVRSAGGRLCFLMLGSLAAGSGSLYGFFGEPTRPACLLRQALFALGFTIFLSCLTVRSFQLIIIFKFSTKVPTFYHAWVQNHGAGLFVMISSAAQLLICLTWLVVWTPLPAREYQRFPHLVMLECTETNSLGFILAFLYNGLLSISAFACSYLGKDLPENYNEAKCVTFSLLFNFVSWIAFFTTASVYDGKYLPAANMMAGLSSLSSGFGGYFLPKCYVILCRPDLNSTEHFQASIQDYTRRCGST
T1 sequence (Q7RTX0 21-852 C757R): as the sequence (Q7RTX0 21-852 C757R) above
Chain of mT2R5 (Q9JKT4 whole entry): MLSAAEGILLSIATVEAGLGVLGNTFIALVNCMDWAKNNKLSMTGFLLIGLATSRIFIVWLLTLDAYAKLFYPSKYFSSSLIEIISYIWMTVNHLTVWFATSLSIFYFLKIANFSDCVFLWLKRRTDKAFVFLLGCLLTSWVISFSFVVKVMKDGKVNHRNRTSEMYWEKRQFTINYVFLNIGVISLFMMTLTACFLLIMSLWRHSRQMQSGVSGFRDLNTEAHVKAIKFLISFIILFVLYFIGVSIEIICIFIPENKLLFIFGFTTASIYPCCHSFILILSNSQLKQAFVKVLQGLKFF

Question: Which EC50 (hT1R2/hT1R3) does the source give for `Cc1cc(C)c(C(=O)NC2CCCCCC2)c(C)c1` [Compound E49, N-cycloheptyl-2,4,6-trimethylbenzamide] here?
Answer: 1.39 µM

Question: Which EC50 (hT1R2/hT1R3) does the source give for `Cc1oncc1C(=O)N[C@@H]1CCCc2ccccc21` [Compound E26, (R)-5-methyl-N-(1,2,3,4-tetrahydronaphthalen-1-yl)isoxazole-4-carboxamide] here?
Answer: 8.09 µM

Question: With `N[C@@H](CCC(=O)O)C(=O)O` [glutamate] as the molecule, how does the “maximal percentage of responding cells” value (T1R1/T1R3 [1]; glutamate alone) read?
Answer: approximately 5%

Question: What about the “maximal percentage of responding cells” value (T1R1/T1R3 [1]; glutamate plus 0.2 mM IMP) of the same molecule?
Answer: approximately 10%

Question: For `N[C@@H](CCC(=O)O)C(=O)O` [L-glutamate, reference compound], which “percentage of cells that responded” value (T1R1/T1R3 [1]; transiently transfected cells) is on record?
Answer: approximately 10%

Question: What about the “activation of T1R1/T1R3 receptor by L-amino acids” value (T1R1/T1R3 [2]; clone I-17, with and without IMP) of the same molecule?
Answer: significantly activated

Question: And the “percentage of cells that responded” value (T1R1/T1R3 [2]; induced cells (inducible T1R1/T1R3 expression))?
Answer: approximately 80%

Question: With `COc1cccc2c1CCCC2NC(=O)c1cc(O)ccc1O` (stereo not drawn) [Compound E18, 2,5-dihydroxy-N-(5-methoxy-1,2,3,4-tetrahydronaphthalen-1-yl)benzamide] as the molecule, how does the EC50 (hT1R2/hT1R3) read?
Answer: 3.38 µM

Question: For `OC[C@H]1O[C@@](CO)(O[C@H]2O[C@H](CO)[C@@H](O)[C@H](O)[C@H]2O)[C@@H](O)[C@@H]1O` [sucrose], which “effect of other sweeteners on human T1R1/T1R3 activities” value (shortened to “effect of other sweeteners”) (T1R1/T1R3 [3]) is on record?
Answer: no effect

Question: And the EC50 (human sweet receptor; 0 μM lactisole)?
Answer: 19400 ± 900 µM

Question: What about the EC50 (human sweet receptor; 10 μM lactisole) of the same molecule?
Answer: 24700 ± 1000 µM

Question: What about the EC50 (human sweet receptor; 20 μM lactisole) of the same molecule?
Answer: 31300 ± 300 µM

Question: For `C=C1C[C@@]23CC[C@H]4[C@@](C)(CCC[C@@]4(C)C(=O)O[C@@H]4O[C@H](CO)[C@@H](O)[C@H](O)[C@H]4O)[C@@H]2CC[C@]1(O[C@@H]1O[C@H](CO)[C@@H](O)[C@H](O)[C@H]1O[C@@H]1O[C@H](CO)[C@@H](O)[C@H](O)[C@H]1O)C3` [Steviocide, stevioside], which “effect of control sweeteners on activities of T1R1/T1R3 umami taste receptor” value (T1R1/T1R3 [3]) is on record?
Answer: do not affect

Question: Which EC50 (human sweet receptor; 0 μM lactisole) does the source give for `N[C@H](Cc1c[nH]c2ccccc12)C(=O)O` [D-Trp, D-tryptophan] here?
Answer: 370 ± 20 µM

Question: And the EC50 (human sweet receptor; 10 μM lactisole)?
Answer: 600 µM

Question: What about the EC50 (human sweet receptor; 20 μM lactisole) of the same molecule?
Answer: 940 ± 80 µM

Question: Which “effect of other sweeteners” value (T1R1/T1R3 [3]) does the source give for `N[C@H](Cc1c[nH]c2ccccc12)C(=O)O` [D-tryptophan] here?
Answer: no effect

Question: What does the source list for `CCCC(CCC)NC(=O)c1cc2cc(C)ccc2o1` [Compound A10]?
Answer: Ec50 ratio (vs. MSG) (T1R1/T1R3 [4]): 4.51; EC50 (T1R1/T1R3 [2]): 0.91 µM

Question: Which “effect of other sweeteners” value (T1R1/T1R3 [3]) does the source give for `COC(=O)[C@H](Cc1ccccc1)NC(=O)[C@@H](N)CC(=O)O` [aspartame] (H-Asp-Phe-OMe) here?
Answer: no effect

Question: With `COc1ccc(OC(C)C(=O)O)cc1` (stereo not drawn) [lactisole, Lactisole] as the molecule, how does the “effect on endogenous muscarinic acetylcholine receptor response” value [5] read?
Answer: not inhibited; also recorded: no effect

Question: What about the “effect on mouse bitter receptor mT2R5” value (mT2R5) of the same molecule?
Answer: no effect

Question: What about the “detection thresholds for sweet, umami and salt taste stimuli” value [6] of the same molecule?
Answer: dramatically increased detection thresholds for sweet and umami but not salt taste stimuli

Question: For `O=C1NS(=O)(=O)c2ccccc21` [saccharin], which “effect of other sweeteners” value (T1R1/T1R3 [3]) is on record?
Answer: no effect

Question: What about the “effect of control sweeteners on activities of T1R1/T1R3 umami taste receptor” value (T1R1/T1R3 [3]) of the same molecule?
Answer: do not affect

Question: With `O=S(=O)(O)NC1CCCCC1` [cyclamate] as the molecule, how does the “effect of compound alone on T1R1/T1R3” value (T1R1/T1R3 [3]; alone) read?
Answer: no effect

Question: And the “effect on T1R1/T1R3 activity in the presence of L-glutamate” value (T1R1/T1R3 [3]; threshold level of L-glutamate (4 mM))?
Answer: enhanced the activity of the receptor

Question: For `CCC[C@@H](NC(=O)c1ccc(OC)c(Cl)c1)C(=O)OC` [Compound A67], which “Ec50 ratio (vs. MSG)” value (T1R1/T1R3 [4]) is on record?
Answer: 10.75

Question: What about the EC50 (T1R1/T1R3 [2]) of the same molecule?
Answer: 0.29 µM

Question: Which “functional response in FLIPR assay” value (HEK293-Gα15 cells) does the source give for `O=C(CO)[C@@H](O)[C@H](O)[C@H](O)CO` [D-Fructose, D-fructose] here?
Answer: do not show any functional response
